According to patent publication US20230340607A1, “COMPOSITIONS AND METHODS FOR DETECTING GENE FUSIONS OF RAD51AP1 AND DYRK4 AND FOR DIAGNOSING AND TREATING CANCER” (UNIVERSITY OF PITTSBURGH-OF THE COMMONWEALTH SYSTEM OF …, priority 2020, published 2023):
Entries after “also recorded” stand apart in the source; their conditions may differ.

Assays:
Type in all cases: cell-based, human
[1] = test system: T47D cells inducibly expressing RAD51AP1-DYRK4 (E9-E2); assay: Clonogenic assay, T47D cells inducibly expressing RAD51AP1-DYRK4 (E9-E2)
Description: (§1) Next, the sensitivity of the engineered T47D cells inducibly expressing RAD51AP1-DYRK4 or wtRAD51AP1 to MEK inhibition was assessed. The first FDA approved MEK inhibitor currently under phase II clinical trial for triple negative breast cancer (NCI 9455) called Trametinib was used for MEK inhibition. MEK inhibition requires longer term drug exposure to exert therapeutic effect (Xue, Z. et al. (2018)). Therefore, clonogenic assays on the T47D models were performed to assess the cell viability following trametinib treatment in the presence or absence of doxycycline induction. Since T47D cells express EGFR, the cells were also treated with lapatinib to observe the combinatory effect.
(§2) Clonogenic assay. The E9-E2 and wtRAD51AP1 expressing T47D cells were seeded at a density of 1000 cells/well in a 6-well plate with or without 200 ng/ml doxycycline treatment and incubated for 14-21 days. The colonies were stained with 0.5% crystal violet in 50% ethanol and counted using GelCount (Oxford Optronix Ltd.). The Trametinib (MEKi) and Lapatinib (EGFR/HER2 inhibitor) used for in vitro therapeutic studies were purchased from Selleck Chemicals. To test their therapeutic effects in the engineered T47D cells and other cell lines, cells (5000-10000, depending on the doubling time) were plated in 24-well for 24 hours prior to treatment with growth media containing trametinib, lapatinib or DMSO was replaced every 4 days for approximately 2 weeks. After this, cells were stained with 0.5% crystal violet in water containing 50% ethanol for 15 minutes at room temperature. The area and intensity of each well was measured using Image J. with Colony Area Plug In.

MDAMB361 cells = assay: Clonogenic assay, MDAMB361 cells
Description: (§3) Since MDAMB361 is a HER2 positive cell line we also assessed the therapeutic effect of lapatinib treatment alone or in combination with trametinib.
as §2

[2] = test system: T47D cells inducibly expressing wtRAD51AP1; assay: Clonogenic assay, T47D cells inducibly expressing wtRAD51AP1; details: induction of wtRAD51AP1 expression
Description: as §1
Clonogenic assay. The E9-E2 and wtRAD51AP1 expressing T47D cells were seeded at a density of 1000 cells/well in a 6-well plate with or without 200 ng/ml doxycycline treatment and incubated for 14-21 days. The colonies were stained with 0.5% crystal violet in 50% ethanol and counted using GelCount (Oxford Optronix Ltd.). The Trametinib (MEKi) and Lapatinib (EGFR/HER2 inhibitor) used for in vitro therapeutic studies were purchased from Selleck Chemicals. […] The area and intensity of each well was measured using Image J. with Colony Area Plug In.

HCC1937 cells = assay: Clonogenic assay, HCC1937 cells; details: HCC1937 overexpressing RAD51AP1-DYRK4, compared to MCF7, HCC38, HCC1428, and ZR-75-30 cell lines
Description: as §3, §2

[3] = test system: HER2/PI3K/AKT/Raptor activation; assay: Western blot of engineered T47D cells after trametinib: HER2/PI3K/AKT/Raptor; details: 0.5uM trametinib, 24 hours
Description: (§4) Compensative HER2/PI3K/AKT and MAP3K1/JNK/JUN activation has been reported to mediate resistance to MEK inhibitors (Avivar-Valderas, A. et al. (2018); Maher, C.A. et al. (2009)). We thus examined if RAD51AP1-DYRK4 and wtRAD51AP1 differentially modulate these survival pathways following MEK inhibition. To test this, we treated the engineered T47D cells with 0.5uM of trametinib or vehicle for 24 hours, to assess the early signaling changes following trametinib treatment. […] In contrast, this compensatory signaling was activated in T47D cells overexpressing wtRAD51AP1 following MEK inhibition (FIG. 7A). In addition, RAD51AP1-DYRK4 also repressed MAP3K1 protein level and JNK-JUN phosphorylation under MEK inhibition.
(§5) Western blot. For immunoblot analysis, E9-E2 and wtRAD51AP1 expression was induced in transduced T47D cells with 200 ng/ml doxycycline for one week. Total proteins were extracted by homogenizing the cells in RIPA Lysis Buffer (Sigma-Aldrich), supplemented with complete protease inhibitor cocktail tablet (Roche Diagnostics), 50 mM beta-Glycerophosphate, 1 mM sodium orthovanadate, 1 mM sodium fluoride, and 1 mM PMSF. Thirty micrograms of protein extracts were denatured in sample buffer, separated by SDS-PAGE, and transferred onto a nitrocellulose membrane (Invitrogen). The membranes were blocked and incubated overnight at 4° C. with primary antibodies. […]

[4] = test system: MAP3K1 protein level and JNK-JUN phosphorylation; assay: Western blot of engineered T47D cells after trametinib: MAP3K1/JNK/JUN; details: 0.5uM trametinib, 24 hours
Description: as §4, §5

[5] = T47D cells overexpressing RAD51AP1-DYRK4

CS(=O)(=O)CCNCc1ccc(-c2ccc3ncnc(Nc4ccc(OCc5cccc(F)c5)c(Cl)c4)c3c2)o1 [lapatinib, Lapatinib]
therapeutic benefit of lapatinib alone (clonogenic assay) ([1]; engineered T47D cells): did not result in additional therapeutic benefits; also recorded: did not show additional therapeutic benefits
therapeutic benefit of lapatinib in combination with trametinib (clonogenic assay) ([1]; engineered T47D cells, combination with trametinib): did not result in additional therapeutic benefits; also recorded: did not show additional therapeutic benefits
therapeutic effect of lapatinib alone (clonogenic assay) (MDAMB361 cells; MDAMB361, HER2 positive): highly resistant; also recorded: resistance
therapeutic effect of lapatinib in combination with trametinib (clonogenic assay) (MDAMB361 cells; MDAMB361, combination with trametinib): highly sensitive

CC(=O)Nc1cccc(-n2c(=O)n(C3CC3)c(=O)c3c(Nc4ccc(I)cc4F)n(C)c(=O)c(C)c32)c1 [trametinib]
sensitivity to trametinib (clonogenic assay, cell viability) ([1]; T47D cells, doxycycline-induced ectopic RAD51AP1-DYRK4 (E9-E2) expression vs absence of induction): significantly increased sensitivity
increased sensitivity to trametinib (clonogenic assay, cell viability) [2]: not observed
increased sensitivity to trametinib (clonogenic assay, cell viability) ([2]; listed as Trametinib): not
sensitivity to trametinib treatment (clonogenic assay) (MDAMB361 cells; MDAMB361 overexpressing RAD51AP1-DYRK4, compared to MCF7, HCC38, HCC1428, and ZR-75-30 cell lines): markedly higher sensitivity
sensitivity to trametinib treatment (clonogenic assay) (HCC1937 cells): markedly higher sensitivity
HER2/PI3K/AKT/Raptor activation under MEK inhibition (Western blot) [3, 5]: attenuates
compensatory HER2/PI3K/AKT/Raptor signaling following MEK inhibition (Western blot) ([3]; T47D cells overexpressing wtRAD51AP1): activated; also recorded: compensatory activation
MAP3K1/JNK/JUN signaling following MEK inhibition (Western blot) ([4]; T47D cells ectopically expressing wtRAD51AP1): did not observe activation
MAP3K1 protein level and JNK-JUN phosphorylation under MEK inhibition (Western blot) [4, 5]: repressed
